Values joined by “and” are separate entries in the source; they are usually repeats but may differ in a detail not shown here. Equal values may be shown once.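 Dose response: 5 concentrations. Exposure: 48 h. Format: 96-well plates. Endpoint: linear interpolation; highest concentration if not reached. GI50: concentration for 50% inhibition of growth. TGI is the concentration that stops growth completely.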 Some results are limits rather than exact numbers.

What all share (test): DTP human tumour cell line panel, 48 h
The test system of assay [1] is M14 melanoma.
Assay [2] concerns OVCAR-5 ovarian.
Assay [3] has as its system SNB-75 CNS.
The test system of assay [4] is MALME-3M melanoma.
In assay [5] the test system is HT29 colon.
In assay [6] the test system is TK-10 renal.
In assay [7] the test system is SK-MEL-2 melanoma.
Assay [8] concerns NCI/ADR-RES ovarian.
The subject of assay [9] is OVCAR-8 ovarian.
Assay [10] has as its system NCI-H522 lung.

Usually GI50 stands for the concentration giving 50% growth inhibition. The term TGI denotes the concentration at which net growth stops. A high value points to lower sensitivity of the cells. In the case of `Cc1c2ncccc2c(C)c2c1[nH]c1ccc(O)cc12`, the GI50 in assay [1] is 8.67 µM; in assay [2], 46.6 µM; in [3], 7.45 µM and 15.2 µM; in [4], 6.44 µM and 32.7 µM; in [6], 17.4 µM; in [8], 4.08 µM. Besides, the GI50 in [9] is 4.99 µM and 2.86 µM. The TGI was 17.2 µM in [1]; 24.4 µM and 120 µM in assay [2]; 23.2 µM and 103 µM in assay [4]; 32.3 µM in assay [5]; 25.9 µM and 61.6 µM in [6]; 97.5 µM in [7]. Moreover, the TGI in [8] was 21 µM; in [9] it was 18.2 µM and 32.1 µM; in [10], 19.6 µM.

As to `COc1cc(-c2cc(C(=O)Nc3nc4ccccc4s3)nc3cc(-c4ccccc4)nn23)cc(OC)c1OC`, the GI50 is 2.39 µM in [1]; over 100 µM in assay [2]; 2.77 µM in assay [3]; 12.4 µM in [4]; 11.9 µM in [6]; 11.2 µM in assay [7]. Also, the GI50 is 19.6 µM in assay [8], 5.37 µM in [9] and 1.96 µM in assay [10]. Also, the total growth inhibition concentration (TGI) in assay [1] was over 100 µM; in assay [2], over 100 µM; in [3] it was 16.1 µM; in [4] it was 56.2 µM; in assay [6] it was 32.7 µM; in [7], 27.7 µM. Moreover, the TGI in assay [8] was over 100 µM; in assay [9] it was over 100 µM; in assay [10] it was 7.82 µM.

Take `Nc1nc(SCC(=O)O)[nH]c(=O)c1N`: the TGI in assay [1], in assay [2], in assay [3], in [4], in assay [5] and in assay [6] was over 100 µM in each case. Also, the TGI in [7], in assay [8], in [9] and in assay [10] was over 100 µM throughout.

As for `Clc1ccc(Nc2ccnc(NCCNc3ccnc4cc(Cl)ccc34)n2)cc1`, the GI50 in [1] is 1.4 µM; in [2] it was 1.16 µM; in assay [3], 1.22 µM; in assay [4], 1.74 µM; in assay [5], 0.615 µM; in [6], 1.76 µM. The GI50 was 1.96 µM in assay [7], 1.61 µM in [8], 1.59 µM in [9] and 1.7 µM in [10]. Further, the TGI stood at 3.09 µM in assay [1]; 2.45 µM in [2]; 2.47 µM in assay [3]; 3.48 µM in assay [4]; 2.07 µM in [5]; 3.17 µM in [6]. Besides, the TGI was 3.5 µM in assay [7], 3.51 µM in assay [8], 3.37 µM in assay [9] and 3.27 µM in assay [10].

For `CCN(Cc1ccc(F)cc1F)c1ccc(CO)c(Cl)c1`, the GI50 was 20.3 µM in [1]; 0.0685 µM in assay [2]; 12.8 µM in assay [3]; 18.2 µM in assay [4]; 5.65 µM in [5]; 0.0434 µM in [6]. Besides, the GI50 in assay [7] is 5.36 µM; in assay [8] it was 12.6 µM; in assay [9], 12.9 µM; in assay [10], 14.8 µM. The TGI in assay [1] was over 55.6 µM; in assay [2], 0.317 µM; in [3], 45.3 µM; in assay [4], 42.8 µM; in assay [5], 30.4 µM; in [6] it was 0.245 µM. Further, the TGI in assay [7] came out at 21.3 µM; in assay [8], 32 µM; in assay [9], 41.3 µM; in assay [10], 37.6 µM.

On to `Cc1cc(Cl)ccc1NC(=O)/C(Cc1nc2ccc(C(=O)c3ccccc3)cc2[nH]c1=O)=N/NC(=O)c1ccncc1`, for which the TGI in assay [1], in assay [2], in assay [3], in assay [4], in assay [5] and in [6] was over 100 µM each time. Also, the TGI in [7], in assay [8], in [9] and in assay [10] was over 100 µM in each case.

For `O=C1CC2(CCCc3sccc32)C(=O)N1` (stereo not given), the TGI in assay [1], in assay [2], in assay [3], in [4], in assay [5] and in [6] was over 100 µM each time. Besides, the TGI in [7], in assay [8], in [9] and in assay [10] was over 100 µM throughout.

As to `COC(=O)c1ccc(-c2nc3cc(F)c(F)cc3nc2C#N)cc1`, the GI50 in assay [1] was 8.28 µM; in [2] it was 12.1 µM; in assay [4] it was 7.64 µM; in [5], 11.1 µM; in assay [6] it was 17.4 µM; in assay [7], 14.9 µM. For the same compound, the GI50 in [8] was 4.21 µM; in assay [9], 4.65 µM; in assay [10], 6.36 µM. Further, the TGI in assay [1] is 18.9 µM; in [2], 32.6 µM; in assay [4], 16.5 µM; in assay [5], 35.6 µM; in [6], 42.2 µM; in assay [7], 46.7 µM. Moreover, the TGI in [8] was determined as 10.4 µM; in [9] it was 13 µM; in [10], 35.4 µM.

Take `CCNCCNc1cc(-c2ccc(Cl)cc2)c(C#N)c2nc3ccccc3n12`: the GI50 in assay [1] is 1.88 µM; in assay [2], 1.91 µM; in assay [3], 1.33 µM; in assay [4], 1.69 µM; in assay [5], 1.79 µM; in assay [6], 2.04 µM. The GI50 in assay [7] is 2.06 µM; in assay [8], 1.85 µM; in assay [10], 2 µM. The TGI in assay [1] is 3.38 µM; in [2], 3.67 µM; in assay [3] it was 2.67 µM; in assay [4] it was 3.38 µM; in [5] it was 3.47 µM; in assay [6], 3.62 µM. The values for the TGI in [7], in assay [8] and in assay [10] were 3.89 µM, 3.91 µM and 3.84 µM, respectively.
